Data on one substance can be found in patent US10022451B2, “Encapsulated agents and methods of making and using thereof” (University of Georgia Research Foundation, Inc., priority 2014, dated 2018).

Data set [1] can be described thus: Stability of P-RFRTs in PBS and at pH 2. The class given is physicochemical. As to conditions: same concentration.
For data set [2] the following is noted: in tetrahydrofuran; cited from earlier work.

Turning to “zinc hexadecafluoro-phthalocyanine [ZnF16Pc]”, the “Stability in PBS” value in data set [1] was “quickly precipitated out due to its poor solubility”. Also, in data set [2], the ΦΔ was 0.85.
